Legend:
Type in all cases: in vivo
Leptosphaeria nodorum = assay: Glume Blotch of Wheat (LEPTNO), protectant spray test on wheat seedlings; conditions: wheat (cultivar Monon), sprayed to run off at 100 ppm, inoculated after 24 hours
Puccinia recondita = assay: Brown Rust (PUCCRT), protectant spray test on wheat seedlings; conditions: wheat (cultivar Monon), sprayed to run off at 100 ppm, inoculated after 24 hours
Phytophthora infestans = conditions: tomatoes (cultivar Rutgers), sprayed to run off at 100 ppm, inoculated after 24 hours
Erysiphe graminis = assay: Powdery Mildew of Wheat (ERYSGT), protectant spray test on wheat seedlings; conditions: wheat (cultivar Monon), sprayed to run off at 100 ppm, inoculated after 24 hours

## CCC(O)(c1ccccc1)c1cnc(OCc2ccccc2C(=NOC)C(=O)NC)c(Cl)c1 (racemic) [Example 42]
Leptosphaeria nodorum
  LEPTNO control of plant disease: ++ (++ = 75-100% control of plant disease)
Puccinia recondita
  PUCCRT control of plant disease: ++ (++ = 75-100% control of plant disease)
Phytophthora infestans
  PHYTIN control of plant disease: ++ (++ = 75-100% control of plant disease)
Erysiphe graminis
  ERYSGT control of plant disease: ++ (++ = 75-100% control of plant disease)

## CNC(=O)C(=NOC)c1ccccc1COc1ncc(C(C)OCc2ccc(C)cc2)cc1Cl (racemic) [Example 44]
Leptosphaeria nodorum
  LEPTNO control of plant disease: ++ (++ = 75-100% control of plant disease)
Puccinia recondita
  PUCCRT control of plant disease: ++ (++ = 75-100% control of plant disease)
Phytophthora infestans
  PHYTIN control of plant disease: ++ (++ = 75-100% control of plant disease)
Erysiphe graminis
  ERYSGT control of plant disease: ++ (++ = 75-100% control of plant disease)

## CNC(=O)C(=NOC)c1ccccc1COc1ncc(C(O)C2CCCCC2)cc1Cl (stereo not shown) [Example 87]
Leptosphaeria nodorum
  LEPTNO control of plant disease: ++ (++ = 75-100% control of plant disease)
Puccinia recondita
  PUCCRT control of plant disease: ++ (++ = 75-100% control of plant disease)
Phytophthora infestans
  PHYTIN control of plant disease: ++ (++ = 75-100% control of plant disease)
Erysiphe graminis
  ERYSGT control of plant disease: ++ (++ = 75-100% control of plant disease)

## CNC(=O)C(=NOC)c1ccccc1COc1ncc(C(OC(C)=O)c2ccc(C)cc2C)cc1Cl (stereo not shown) [Example 92]
Leptosphaeria nodorum
  LEPTNO control of plant disease: ++ (++ = 75-100% control of plant disease)
Puccinia recondita
  PUCCRT control of plant disease: ++ (++ = 75-100% control of plant disease)
Phytophthora infestans
  PHYTIN control of plant disease: ++ (++ = 75-100% control of plant disease)
Erysiphe graminis
  ERYSGT control of plant disease: ++ (++ = 75-100% control of plant disease)

## CCCCOC(C)c1cnc(OCc2ccccc2C(=NOC)C(=O)NC)c(Cl)c1 (stereo not shown) [Example 80]
Leptosphaeria nodorum
  LEPTNO control of plant disease: ++ (++ = 75-100% control of plant disease)
Puccinia recondita
  PUCCRT control of plant disease: ++ (++ = 75-100% control of plant disease)
Phytophthora infestans
  PHYTIN control of plant disease: − (− = 0-24% control of plant disease)
Erysiphe graminis
  ERYSGT control of plant disease: ++ (++ = 75-100% control of plant disease)

## CNC(=O)C(=NOC)c1ccccc1COc1ncc(C(C)(OC(C)=O)c2ccccc2)cc1Cl (racemic) [Example 53]
Leptosphaeria nodorum
  LEPTNO control of plant disease: ++ (++ = 75-100% control of plant disease)
Puccinia recondita
  PUCCRT control of plant disease: ++ (++ = 75-100% control of plant disease)
Phytophthora infestans
  PHYTIN control of plant disease: ++ (++ = 75-100% control of plant disease)
Erysiphe graminis
  ERYSGT control of plant disease: ++ (++ = 75-100% control of plant disease)

## CNC(=O)C(=NOC)c1ccccc1COc1ncc(C(C)OCc2ccc(Cl)cc2)cc1Cl (racemic) [Example 27]
Leptosphaeria nodorum
  LEPTNO control of plant disease: ++ (++ = 75-100% control of plant disease)
Puccinia recondita
  PUCCRT control of plant disease: ++ (++ = 75-100% control of plant disease)
Phytophthora infestans
  PHYTIN control of plant disease: − (− = 0-24% control of plant disease)
Erysiphe graminis
  ERYSGT control of plant disease: ++ (++ = 75-100% control of plant disease)

## CNC(=O)C(=NOC)c1ccccc1COc1ncc(C(C)OCc2ccccc2)cc1Cl (racemic) [Example 52]
Leptosphaeria nodorum
  LEPTNO control of plant disease: ++ (++ = 75-100% control of plant disease)
Puccinia recondita
  PUCCRT control of plant disease: ++ (++ = 75-100% control of plant disease)
Phytophthora infestans
  PHYTIN control of plant disease: − (− = 0-24% control of plant disease)
Erysiphe graminis
  ERYSGT control of plant disease: ++ (++ = 75-100% control of plant disease)

## CNC(=O)C(=NOC)c1ccccc1COc1ncc(C(OC(=O)C(C)C)c2ccccc2)cc1Cl (racemic) [Example 32]
Leptosphaeria nodorum
  LEPTNO control of plant disease: − (− = 0-24% control of plant disease)
Puccinia recondita
  PUCCRT control of plant disease: ++ (++ = 75-100% control of plant disease)
Phytophthora infestans
  PHYTIN control of plant disease: − (− = 0-24% control of plant disease)
Erysiphe graminis
  ERYSGT control of plant disease: − (− = 0-24% control of plant disease)

## CCC(=O)OC(c1ccc(F)cc1)c1cnc(OCc2ccccc2C(=NOC)C(=O)NC)c(Cl)c1 (racemic) [Example 48]
Leptosphaeria nodorum
  LEPTNO control of plant disease: ++ (++ = 75-100% control of plant disease)
Puccinia recondita
  PUCCRT control of plant disease: ++ (++ = 75-100% control of plant disease)
Phytophthora infestans
  PHYTIN control of plant disease: ++ (++ = 75-100% control of plant disease)
Erysiphe graminis
  ERYSGT control of plant disease: ++ (++ = 75-100% control of plant disease)

## CNC(=O)C(=NOC)c1ccccc1COc1ncc(C(C)(OC)c2ccccc2)cc1Cl (racemic) [Example 35]
Leptosphaeria nodorum
  LEPTNO control of plant disease: ++ (++ = 75-100% control of plant disease)
Puccinia recondita
  PUCCRT control of plant disease: ++ (++ = 75-100% control of plant disease)
Phytophthora infestans
  PHYTIN control of plant disease: − (− = 0-24% control of plant disease)
Erysiphe graminis
  ERYSGT control of plant disease: ++ (++ = 75-100% control of plant disease)

## CNC(=O)C(=NOC)c1ccccc1COc1ncc(C(COC(C)=O)(OC(C)=O)c2ccccc2)cc1Cl (stereo not shown) [Example 107]
Leptosphaeria nodorum
  LEPTNO control of plant disease: ++ (++ = 75-100% control of plant disease)
Puccinia recondita
  PUCCRT control of plant disease: ++ (++ = 75-100% control of plant disease)
Phytophthora infestans
  PHYTIN control of plant disease: ++ (++ = 75-100% control of plant disease)
Erysiphe graminis
  ERYSGT control of plant disease: ++ (++ = 75-100% control of plant disease)

## CNC(=O)C(=NOC)c1ccccc1COc1ncc(C(O)c2ccccc2)cc1Cl (stereo not shown) [Example 72]
Leptosphaeria nodorum
  LEPTNO control of plant disease: ++ (++ = 75-100% control of plant disease)
Puccinia recondita
  PUCCRT control of plant disease: ++ (++ = 75-100% control of plant disease)
Phytophthora infestans
  PHYTIN control of plant disease: ++ (++ = 75-100% control of plant disease)
Erysiphe graminis
  ERYSGT control of plant disease: ++ (++ = 75-100% control of plant disease)

## CNC(=O)C(=NOC)c1ccccc1COc1ncc(C(O)c2ccc(C(C)(C)C)cc2)cc1Cl (racemic) [Example 10]
Leptosphaeria nodorum
  LEPTNO control of plant disease: ++ (++ = 75-100% control of plant disease)
Puccinia recondita
  PUCCRT control of plant disease: ++ (++ = 75-100% control of plant disease)
Phytophthora infestans
  PHYTIN control of plant disease: ++ (++ = 75-100% control of plant disease)
Erysiphe graminis
  ERYSGT control of plant disease: ++ (++ = 75-100% control of plant disease)

## CCOCCOC(c1ccccc1)c1cnc(OCc2ccccc2C(=NOC)C(=O)NC)c(Cl)c1 (stereo not shown) [Example 118]
Leptosphaeria nodorum
  LEPTNO control of plant disease: ++ (++ = 75-100% control of plant disease)
Puccinia recondita
  PUCCRT control of plant disease: ++ (++ = 75-100% control of plant disease)
Phytophthora infestans
  PHYTIN control of plant disease: − (− = 0-24% control of plant disease)
Erysiphe graminis
  ERYSGT control of plant disease: ++ (++ = 75-100% control of plant disease)

## CNC(=O)C(=NOC)c1ccccc1COc1ncc(C(C)OCc2ccc(OC)cc2)cc1Cl (racemic) [Example 17]
Leptosphaeria nodorum
  LEPTNO control of plant disease: ++ (++ = 75-100% control of plant disease)
Puccinia recondita
  PUCCRT control of plant disease: ++ (++ = 75-100% control of plant disease)
Phytophthora infestans
  PHYTIN control of plant disease: − (− = 0-24% control of plant disease)
Erysiphe graminis
  ERYSGT control of plant disease: ++ (++ = 75-100% control of plant disease)

## CNC(=O)C(=NOC)c1ccccc1COc1ncc(C(OC)c2cccc(C)c2)cc1Cl (stereo not shown) [Example 114]
Leptosphaeria nodorum
  LEPTNO control of plant disease: ++ (++ = 75-100% control of plant disease)
Puccinia recondita
  PUCCRT control of plant disease: ++ (++ = 75-100% control of plant disease)
Phytophthora infestans
  PHYTIN control of plant disease: − (− = 0-24% control of plant disease)
Erysiphe graminis
  ERYSGT control of plant disease: ++ (++ = 75-100% control of plant disease)

## CNC(=O)C(=NOC)c1ccccc1COc1ncc(C(O)(CO)c2ccccc2)cc1Cl (stereo not shown) [Example 86]
Leptosphaeria nodorum
  LEPTNO control of plant disease: − (− = 0-24% control of plant disease)
Puccinia recondita
  PUCCRT control of plant disease: ++ (++ = 75-100% control of plant disease)
Phytophthora infestans
  PHYTIN control of plant disease: ++ (++ = 75-100% control of plant disease)
Erysiphe graminis
  ERYSGT control of plant disease: − (− = 0-24% control of plant disease)

## CNC(=O)C(=NOC)c1ccccc1COc1ncc(C2(c3ccccc3)CO2)cc1Cl (stereo not shown) [Example 124]
Leptosphaeria nodorum
  LEPTNO control of plant disease: ++ (++ = 75-100% control of plant disease)
Puccinia recondita
  PUCCRT control of plant disease: ++ (++ = 75-100% control of plant disease)
Phytophthora infestans
  PHYTIN control of plant disease: ++ (++ = 75-100% control of plant disease)
Erysiphe graminis
  ERYSGT control of plant disease: ++ (++ = 75-100% control of plant disease)

## CNC(=O)C(=NOC)c1ccccc1COc1ncc(C(C)OCc2ccccc2OC)cc1Cl (stereo not shown) [Example 97]
Leptosphaeria nodorum
  LEPTNO control of plant disease: ++ (++ = 75-100% control of plant disease)
Puccinia recondita
  PUCCRT control of plant disease: ++ (++ = 75-100% control of plant disease)
Phytophthora infestans
  PHYTIN control of plant disease: − (− = 0-24% control of plant disease)
Erysiphe graminis
  ERYSGT control of plant disease: ++ (++ = 75-100% control of plant disease)

## CNC(=O)C(=NOC)c1ccccc1COc1ncc(C(OC(=O)OC(C)C)c2ccccc2)cc1Cl (racemic) [Example 56]
Leptosphaeria nodorum
  LEPTNO control of plant disease: ++ (++ = 75-100% control of plant disease)
Puccinia recondita
  PUCCRT control of plant disease: ++ (++ = 75-100% control of plant disease)
Phytophthora infestans
  PHYTIN control of plant disease: ++ (++ = 75-100% control of plant disease)
Erysiphe graminis
  ERYSGT control of plant disease: ++ (++ = 75-100% control of plant disease)

## CNC(=O)C(=NOC)c1ccccc1COc1ncc(C(OC2CCCCO2)c2ccccc2)cc1Cl (mixture of isomers) [Example 57]
Leptosphaeria nodorum
  LEPTNO control of plant disease: ++ (++ = 75-100% control of plant disease)
Puccinia recondita
  PUCCRT control of plant disease: ++ (++ = 75-100% control of plant disease)
Phytophthora infestans
  PHYTIN control of plant disease: ++ (++ = 75-100% control of plant disease)
Erysiphe graminis
  ERYSGT control of plant disease: ++ (++ = 75-100% control of plant disease)

## CNC(=O)C(=NOC)c1ccccc1COc1ncc(C(O)c2cccc(C)c2)cc1Cl (stereo not shown) [Example 84]
Leptosphaeria nodorum
  LEPTNO control of plant disease: − (− = 0-24% control of plant disease)
Puccinia recondita
  PUCCRT control of plant disease: ++ (++ = 75-100% control of plant disease)
Phytophthora infestans
  PHYTIN control of plant disease: ++ (++ = 75-100% control of plant disease)
Erysiphe graminis
  ERYSGT control of plant disease: ++ (++ = 75-100% control of plant disease)

## CNC(=O)C(=NOC)c1ccccc1COc1ncc(C(O)c2cccc3ccccc23)cc1Cl (stereo not shown) [Example 103]
Leptosphaeria nodorum
  LEPTNO control of plant disease: ++ (++ = 75-100% control of plant disease)
Puccinia recondita
  PUCCRT control of plant disease: ++ (++ = 75-100% control of plant disease)
Phytophthora infestans
  PHYTIN control of plant disease: ++ (++ = 75-100% control of plant disease)
Erysiphe graminis
  ERYSGT control of plant disease: + (+ = 25-74% control of plant disease)

## CCOC(C)(c1ccccc1)c1cnc(OCc2ccccc2C(=NOC)C(=O)NC)c(Cl)c1 (stereo not shown) [Example 122]
Phytophthora infestans
  PHYTIN control of plant disease: − (− = 0-24% control of plant disease)
Erysiphe graminis
  ERYSGT control of plant disease: ++ (++ = 75-100% control of plant disease)

## CNC(=O)C(=NOC)c1ccccc1COc1ncc(C(OC(C)=O)c2ccsc2)cc1Cl (stereo not shown) [Example 121]
Phytophthora infestans
  PHYTIN control of plant disease: ++ (++ = 75-100% control of plant disease)
Erysiphe graminis
  ERYSGT control of plant disease: ++ (++ = 75-100% control of plant disease)
